Assay results from patent US20220105157A1, “Compositions and Methods for Promoting Angiogenesis in the Eye” (The Regents of the University of California, priority 2019, published 2022).

Key:
mouse retina = assay: Measurement of vascular leakage in retina (TRITC-dextran); format: in vivo; settings: mice, LIF 10 ng intravitreally
Experimental: Recombinant human VEGF (100 ng) or LIF (10 ng) was injected into the vitreous (0.1% BSA PBS solution as vehicle control). TRITC-dextran (50 mg/ml, 100 ul) was then injected into the tail vein. Ten minute later, animals were sacrificed and eyes were enucleated. Retina flat mount was imaged under microscope (65).

[1] = test system: bovine choroidal endothelial (BCE) cells; assay: BCE endothelial cell proliferation assay (alamar blue); format: cell-based
Experimental: (§1) The bovine endothelial proliferation assays were performed essentially as previously described (63, 64). BCE (1×10^3 cells/well) or BRE (5×10^2 cells/well) cells were seeded in 96-well plates in the culture medium (DMEM-low glucose supplemented with 10% BCS, 2 mM glutamine and antibiotics) plus testing materials with a total volume of 200 μl per well. BAE cells were plated in 96-well plates at a density of 2×10^3 cells in the culture medium (DMEM-low glucose supplemented with 1% BCS and antibiotics) plus testing material with a total volume of 200 μl per well. HRME cells were seeded at a density of 1×10^3 cells/well in gelatin-coated 96-well plates in assay medium (DMEM-low glucose supplemented with 20% FBS and antibiotics) plus testing materials to make a total volume 200 μl per well. For assays involving antibodies or small-molecule inhibitors, inhibitors or vehicle controls were first added and then test materials were added one hour later. After 6 days (unless otherwise specified), cells were incubated with alamar blue for 4 h. Fluorescence was measured at 530 nm excitation wavelength and 590 nm emission wavelength. Each experiment was carried out in duplicate/triplicate and repeated at least three times.

mouse choroidal explants = assay: Mouse choroidal explant assay (ex vivo sprouting); format: cell-based; settings: LIF 10 ng/ml, compared with control
Experimental: In a 48-well plate, 60 μL of growth factor-reduced basement membrane extract (GFR-BME) (Corning, CAT #354230) was added to each well and allowed to solidify at 37° C. for 20 minutes. A dice of the peripheral choroid-scleral complex (approximately 1 mm×1 mm), dissected from male C57BL/6J mice (age P20), was added to the center of each well as previously described (23). A top layer of 60 μL GFR-BME was added to each well, followed by incubation at 37° C. for 30 minutes. Upon adding 500 μL of endothelial cell growth basal medium EBM-2 (Lonza, CAT #CC3156) supplemented with 2% FBS and antibiotics, endogenous VEGF activity of choroid explants was blunted by 5 μg/ml of anti-VEGF Mab B20-4.1.1. After 90 minutes of incubation with the antibody, 10 ng/ml of LIF or PBS control was added in the test wells. Tissues were incubated in standard cell culture conditions with 5% CO2 and fresh media were changed every 48 hours. Phase contrast Z-stack images of each explants were taken on day 5 using a Keyence microscope. Vessel sprouting areas were quantified using ImageJ software. The experiment was repeated three times and data were obtained by analyzing 5 replicates per each condition each time.

[2] = test system: retinal vasculature of mouse eyes; assay: Intravitreal injection of recombinant proteins in mouse eyes, retinal vessel density; format: in vivo; settings: for retinal microvessel density (CD31): 6-8 week old mice, intravitreal
Experimental: Male C57BL/6J mice (6-8 week and P5) were anesthetized with ketamine/Xylazine cocktail. The indicated amounts of recombinant LIF (Sigma, CAT #SRP9001) in 1 μl of PBS and PBS vehicle control were injected intravitreally with a 33-gauge Hamilton syringe. Seven (for adult mice) or 3 (for neonatal mice) days after injection, animals were euthanized, eyes were then enucleated and fixed in 4% paraformaldehyde (PFA) for 15 min. Choroid-sclera complexes and retinas were separated and anti-CD31 immunofluorescence (IF) or lectin labeling was performed to evidence the vasculature by whole mount staining of both retina and choroidal tissues or flat-mounts of retina. For CD31 IF, rat anti-mouse antibody (BD Biosciences, CAT #550274) was diluted 1:100 and incubated overnight at 4° C. After 4-hour incubation with the Alexa Fluor-488-conjugated anti-rat antibody (Life Technologies, CAT #A11006), whole mounts were imaged via the 488 nm channel using Keyence Microscope BZ-X710 (Keyence Corporation, Osaka, Japan) or A1R Confocal STORM super-resolution system (Nikon). For lectin staining, Dylight-488-labeled lectin (Vector Laboratories, CAT #DL-1174) was diluted at 1:200 and images were obtained using A1R Confocal STORM super-resolution system (Nikon). For Quantification of vascular density in choroids and retina was carried out by Image J. Student's t test was used for statistical analysis. Each experiment was repeated three times with similar results each time, and each treatment group consists of 4 or 5 individual samples in every experiment. All animal experimental procedures were approved by the Institutional Animal Care and Use Committee (IACUC) of the University of California San Diego and conducted in accordance with the guidelines of the Animal Care Program (ACP).
Optical coherence tomography angiography (OCTA) imaging of the retina of adult mice was performed 7 days after LIF injection, using a 1300 nm optical coherence tomography (OCT) system developed by Dr. R. K. Wang's group at University of Washington Seattle, in agreement with previously described methodology (66). Briefly, the swept laser operated in single longitude mode with a 90 nm bandwidth centered at 1300 nm and 200 kHz A-line rate was used to scan mouse retina and to generate images of vasculature in a field of view of 1.5×1.5 mm^2. 2500 B-frames were captured at 500 cross-sections with five repeated B-frames at each cross-section. To quantify the retinal vascular density, retinal and choroidal layers in 3D structure OCT scans were separated by the hyper-reflecting retinal pigment epithelium (RPE). Then the en face maximum intensity projection was generated. The vessel density was then determined by calculating the percentages of vessel-covered area in total area of view using the ImageJ software.

[3] = test system: human retinal microvascular endothelial (HRME) cells; assay: HRME endothelial cell proliferation assay (alamar blue); format: cell-based
Experimental: as §1

LIF: recombinant human leukemia inhibitory factor, a member of the IL-6 family of cytokines
retinal microvascular leakage (mouse retina): does not induce retinal microvascular leakage | stimulation of BCE cell growth (mitogenic activity) [1]: stimulated growth of BCE cells | microvascular outgrowth from the choroidal explant into the matrigel (mouse choroidal explants): significantly enhanced | retinal vascular density in neonatal mice (lectin) ([2]; 5-day postnatal (P5) mice, intravitreal LIF 50 ng, three days after the injection): significant increase in vascular density | retinal microvessel density (CD31) ([2]; 10 ng per eye, 7 days): significantly increased | retinal microvessel density (CD31) ([2]; 100 ng, 7 days): less effective | vessel density in retina, CD31 immunofluorescence in cross sections of mouse eyes ([2]; adult mice, intravitreal LIF 10 ng, 7 days): increased vessel density | retinal vessel density by OCTA ([2]; adult mice, intravitreal LIF 50 ng, 7 days): significant increases | effect on VEGF-stimulated growth of human retinal microvascular endothelial cells ([3]; LIF added to VEGF): significantly enhanced VEGF-stimulated growth | mitogenic response in human retinal microvascular endothelial cells ([3]; LIF alone): did not elicit a strong mitogenic response
